Assay results: PMC5400565, “Real-time near-infrared fluorescence imaging using cRGD-ZW800-1 for intraoperative visualization of multiple cancer types” (Oncotarget, 2017)

Assays:
[1] = biological target: Potassium Channel hERG (Homo sapiens, UniProt Q12809)
[2] = Toxicology study in rats (unpublished data)
[3] = biological target: T1, Histamine H1 (Homo sapiens, UniProt P35367); test: biochemical; assay type: binding
T1 construct: Eurofins Cerep SA (contract screening)

[4] = system: orthotopic HT-29 colon tumors; test: In vivo competition, orthotopic HT-29 model; parameters: species or system mice
Experimental: All animals were imaged using a Pearl® imager (LI-COR, Lincoln, NE) and an original FLARE® prototype. Animals with HT-29 tumors were imaged at 4 and 24 h post injection; animals with BxPC-3 and OSC-19 tumors at 4 h only. Animals with MCF-7 tumors were imaged at 0.5, 1, 2, 4, 6, 8, 24 and 48 h post injection. The specific and control images were normalized and regions of interest (ROIs) were selected using associated software. TBRs were calculated by dividing the tumor signal by the background signal. Based on our experience a TBR ≥ 2 is sufficient to discriminate between tumor and surrounding tissue.
The binding specificity of cRGD-ZW800-1 was explored in a competition experiment using an excess of unlabeled cRGD (200-fold excess) co-injected with a standard dose of 10 nmol cRGD-ZW800-1 (n = 4). Simultaneously, mice (n = 3) were injected with 10 nmol cRGD-ZW800-1 as positive control. All mice had orthotopic HT-29 colon tumors. Images were acquired at 4 and 24 h post-injection after which animals were sacrificed and organs were resected and scanned with Pearl®.

[5] = biological target: T2, Adrenergic α1A (Homo sapiens, UniProt P35348); test: Off-target screening (Eurofins Cerep), α1A; assay type: binding
T2 construct: Eurofins Cerep SA (contract screening)
T2 sequence (P35348 1-466): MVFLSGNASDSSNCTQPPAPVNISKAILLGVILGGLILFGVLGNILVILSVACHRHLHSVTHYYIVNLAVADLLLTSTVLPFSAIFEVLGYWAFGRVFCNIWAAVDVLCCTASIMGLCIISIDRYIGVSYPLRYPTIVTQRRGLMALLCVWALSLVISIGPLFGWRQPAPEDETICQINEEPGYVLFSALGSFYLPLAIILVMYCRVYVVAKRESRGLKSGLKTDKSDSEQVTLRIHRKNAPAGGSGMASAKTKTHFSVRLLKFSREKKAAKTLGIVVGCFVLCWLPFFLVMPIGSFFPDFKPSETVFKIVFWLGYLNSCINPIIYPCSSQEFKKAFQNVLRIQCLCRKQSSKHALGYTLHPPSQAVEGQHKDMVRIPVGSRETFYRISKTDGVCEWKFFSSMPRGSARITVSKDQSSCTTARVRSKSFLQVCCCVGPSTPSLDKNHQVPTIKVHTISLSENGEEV
Text: (§1) Off-target interactions are binding of tracers to other components on the cell surface than the actual target site. These non-specific interactions are often of low affinity and easily missed, but can have significant effects. We outsourced the screening for in vitro for off-target interactions of cRGD-ZW800-1 to Eurofins Cerep SA, Le bois l’Evêque, France. They assessed the percentage of inhibition of a reference compound in 44 selected targets, including G protein-coupled receptors (GPCRs), transporters, ion channels, nuclear receptors, kinases and other non-kinase enzymes. These targets were recommended by four major pharmaceutical companies. The complete list is included in Supplementary Table 1 of the Supplementary Data. Each assay was performed twice using 10 μM cRGD-ZW800-1 and a reference compound. Inhibition higher than 50% was considered to represent a significant effect of cRGD-ZW800-1. Results showing between 20% and 50% were considered weak to moderate effects, while lower than 20% was not considered significant and mostly attributable to variability of the signal around the control level.

[6] = biological target: T3, Muscarinic M2 (Homo sapiens, UniProt P08172); test: Off-target screening (Eurofins Cerep), M2; assay type: binding
T3 construct: Eurofins Cerep SA (contract screening)

[7] = biological target: T4, MAO-A (Rattus norvegicus, UniProt P21396); test: Off-target screening (Eurofins Cerep), MAO-A; assay type: binding
T4 construct: Eurofins Cerep SA (contract screen)

[8] = biological target: T5, PDE3A (Homo sapiens, UniProt Q14432); test: Off-target screening (Eurofins Cerep), PDE3A; assay type: biochemical
T5 construct: Eurofins Cerep SA (contract screen)

[9] = biological target: Glutamate channels NMDA (Rattus norvegicus, UniProt Q00959); test: Off-target screening (Eurofins Cerep), NMDA; assay type: binding
[10] = biological target: Ca2+ channel (L, dihydropyridine site) (Rattus norvegicus, UniProt P22002); test: Off-target screening (Eurofins Cerep), Ca2+ channel; assay type: binding
Text: as §1

[11] = system: KV channel; test: Off-target screening (Eurofins Cerep), KV channel; assay type: binding
Text: as §1

[12] = biological target: T6, Cannabinoid CB2 (Homo sapiens, UniProt P34972); test: Off-target screening (Eurofins Cerep), CB2; assay type: binding
T6 construct: Eurofins Cerep SA (contract screening)

[13] = biological target: T7, Dopamine D1 (Homo sapiens, UniProt P21728); test: Off-target screening (Eurofins Cerep), D1; assay type: binding
T7 construct: Eurofins Cerep SA (contract screening)

[14] = biological target: T8, Histamine H2 (Homo sapiens, UniProt P25021); test: Off-target screening (Eurofins Cerep), H2; assay type: binding
T8 construct: Eurofins Cerep SA (contract screening)

[15] = system: tumors; test: Estimated concentration inside tumors in humans; conditions: after administering 63 μg/kg, assuming tumor uptake comparable to RGD-PET tracer
[16] = biological target: T9, Muscarinic M1 (Homo sapiens, UniProt P11229); test: biochemical; assay type: binding
T9 construct: Eurofins Cerep SA (contract screening)

[17] = read-out: % Inhibition of Control Specific Binding
[18] = read-out: % of Control Specific Binding Mean
[19] = 10 μM cRGD-ZW800-1, format H, An, performed twice, read-out: % Inhibition of Control Specific Binding
[20] = 10 μM, mean of 2, read-out: % of Control Specific Binding Mean

Sequence of Potassium Channel hERG (Q12809 whole entry): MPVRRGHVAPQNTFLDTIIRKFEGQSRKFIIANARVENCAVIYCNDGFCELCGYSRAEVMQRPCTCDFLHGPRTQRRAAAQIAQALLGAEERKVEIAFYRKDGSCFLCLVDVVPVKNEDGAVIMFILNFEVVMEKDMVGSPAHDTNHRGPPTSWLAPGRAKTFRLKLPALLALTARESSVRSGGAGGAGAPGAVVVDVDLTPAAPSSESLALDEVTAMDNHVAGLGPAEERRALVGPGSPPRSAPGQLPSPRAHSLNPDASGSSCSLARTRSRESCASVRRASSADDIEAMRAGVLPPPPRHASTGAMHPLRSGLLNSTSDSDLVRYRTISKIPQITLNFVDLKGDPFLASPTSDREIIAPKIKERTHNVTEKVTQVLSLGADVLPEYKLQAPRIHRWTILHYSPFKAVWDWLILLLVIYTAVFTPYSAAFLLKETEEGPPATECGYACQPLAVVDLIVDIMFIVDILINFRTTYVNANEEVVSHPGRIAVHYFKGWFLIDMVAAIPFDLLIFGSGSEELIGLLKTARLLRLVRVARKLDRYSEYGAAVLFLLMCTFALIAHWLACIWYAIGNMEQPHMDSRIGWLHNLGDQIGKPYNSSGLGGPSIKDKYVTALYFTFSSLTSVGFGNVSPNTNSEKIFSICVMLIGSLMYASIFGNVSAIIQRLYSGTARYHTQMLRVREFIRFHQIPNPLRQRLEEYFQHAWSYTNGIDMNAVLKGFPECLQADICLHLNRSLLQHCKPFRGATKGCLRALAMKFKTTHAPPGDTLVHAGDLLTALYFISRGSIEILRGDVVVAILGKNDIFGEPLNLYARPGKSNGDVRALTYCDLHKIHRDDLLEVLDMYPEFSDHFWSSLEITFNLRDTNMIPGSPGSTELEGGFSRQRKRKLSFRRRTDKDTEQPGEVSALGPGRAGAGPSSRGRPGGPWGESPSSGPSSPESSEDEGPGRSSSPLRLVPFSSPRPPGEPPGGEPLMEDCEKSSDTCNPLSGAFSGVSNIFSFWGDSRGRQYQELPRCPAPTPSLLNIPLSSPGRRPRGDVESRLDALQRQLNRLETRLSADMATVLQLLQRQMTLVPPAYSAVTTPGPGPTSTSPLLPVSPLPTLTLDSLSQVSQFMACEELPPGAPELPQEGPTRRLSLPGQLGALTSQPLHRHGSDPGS
T6 sequence (P34972 whole entry): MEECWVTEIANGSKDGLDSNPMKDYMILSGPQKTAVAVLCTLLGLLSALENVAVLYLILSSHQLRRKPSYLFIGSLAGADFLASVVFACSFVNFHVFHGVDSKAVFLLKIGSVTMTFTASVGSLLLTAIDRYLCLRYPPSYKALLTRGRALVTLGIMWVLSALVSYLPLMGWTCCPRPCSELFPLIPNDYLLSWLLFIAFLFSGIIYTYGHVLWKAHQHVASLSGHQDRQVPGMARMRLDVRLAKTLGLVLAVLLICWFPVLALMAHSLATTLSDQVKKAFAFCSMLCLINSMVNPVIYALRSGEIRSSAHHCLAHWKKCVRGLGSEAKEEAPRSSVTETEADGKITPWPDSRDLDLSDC
T3 sequence (P08172 whole entry): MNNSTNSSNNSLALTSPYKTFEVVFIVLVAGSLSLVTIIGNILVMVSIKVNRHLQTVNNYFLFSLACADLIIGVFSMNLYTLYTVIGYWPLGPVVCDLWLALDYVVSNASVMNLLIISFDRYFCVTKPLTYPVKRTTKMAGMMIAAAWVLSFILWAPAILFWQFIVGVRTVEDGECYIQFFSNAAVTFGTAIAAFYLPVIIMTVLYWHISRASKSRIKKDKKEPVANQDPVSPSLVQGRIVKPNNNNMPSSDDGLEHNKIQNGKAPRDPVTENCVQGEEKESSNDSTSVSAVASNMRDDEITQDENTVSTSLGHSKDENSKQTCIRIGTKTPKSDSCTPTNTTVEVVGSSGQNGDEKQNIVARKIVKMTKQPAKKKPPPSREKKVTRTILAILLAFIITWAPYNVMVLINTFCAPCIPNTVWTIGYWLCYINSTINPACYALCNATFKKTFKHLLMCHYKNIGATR
Sequence of Ca2+ channel (L, dihydropyridine site) (P22002 whole entry): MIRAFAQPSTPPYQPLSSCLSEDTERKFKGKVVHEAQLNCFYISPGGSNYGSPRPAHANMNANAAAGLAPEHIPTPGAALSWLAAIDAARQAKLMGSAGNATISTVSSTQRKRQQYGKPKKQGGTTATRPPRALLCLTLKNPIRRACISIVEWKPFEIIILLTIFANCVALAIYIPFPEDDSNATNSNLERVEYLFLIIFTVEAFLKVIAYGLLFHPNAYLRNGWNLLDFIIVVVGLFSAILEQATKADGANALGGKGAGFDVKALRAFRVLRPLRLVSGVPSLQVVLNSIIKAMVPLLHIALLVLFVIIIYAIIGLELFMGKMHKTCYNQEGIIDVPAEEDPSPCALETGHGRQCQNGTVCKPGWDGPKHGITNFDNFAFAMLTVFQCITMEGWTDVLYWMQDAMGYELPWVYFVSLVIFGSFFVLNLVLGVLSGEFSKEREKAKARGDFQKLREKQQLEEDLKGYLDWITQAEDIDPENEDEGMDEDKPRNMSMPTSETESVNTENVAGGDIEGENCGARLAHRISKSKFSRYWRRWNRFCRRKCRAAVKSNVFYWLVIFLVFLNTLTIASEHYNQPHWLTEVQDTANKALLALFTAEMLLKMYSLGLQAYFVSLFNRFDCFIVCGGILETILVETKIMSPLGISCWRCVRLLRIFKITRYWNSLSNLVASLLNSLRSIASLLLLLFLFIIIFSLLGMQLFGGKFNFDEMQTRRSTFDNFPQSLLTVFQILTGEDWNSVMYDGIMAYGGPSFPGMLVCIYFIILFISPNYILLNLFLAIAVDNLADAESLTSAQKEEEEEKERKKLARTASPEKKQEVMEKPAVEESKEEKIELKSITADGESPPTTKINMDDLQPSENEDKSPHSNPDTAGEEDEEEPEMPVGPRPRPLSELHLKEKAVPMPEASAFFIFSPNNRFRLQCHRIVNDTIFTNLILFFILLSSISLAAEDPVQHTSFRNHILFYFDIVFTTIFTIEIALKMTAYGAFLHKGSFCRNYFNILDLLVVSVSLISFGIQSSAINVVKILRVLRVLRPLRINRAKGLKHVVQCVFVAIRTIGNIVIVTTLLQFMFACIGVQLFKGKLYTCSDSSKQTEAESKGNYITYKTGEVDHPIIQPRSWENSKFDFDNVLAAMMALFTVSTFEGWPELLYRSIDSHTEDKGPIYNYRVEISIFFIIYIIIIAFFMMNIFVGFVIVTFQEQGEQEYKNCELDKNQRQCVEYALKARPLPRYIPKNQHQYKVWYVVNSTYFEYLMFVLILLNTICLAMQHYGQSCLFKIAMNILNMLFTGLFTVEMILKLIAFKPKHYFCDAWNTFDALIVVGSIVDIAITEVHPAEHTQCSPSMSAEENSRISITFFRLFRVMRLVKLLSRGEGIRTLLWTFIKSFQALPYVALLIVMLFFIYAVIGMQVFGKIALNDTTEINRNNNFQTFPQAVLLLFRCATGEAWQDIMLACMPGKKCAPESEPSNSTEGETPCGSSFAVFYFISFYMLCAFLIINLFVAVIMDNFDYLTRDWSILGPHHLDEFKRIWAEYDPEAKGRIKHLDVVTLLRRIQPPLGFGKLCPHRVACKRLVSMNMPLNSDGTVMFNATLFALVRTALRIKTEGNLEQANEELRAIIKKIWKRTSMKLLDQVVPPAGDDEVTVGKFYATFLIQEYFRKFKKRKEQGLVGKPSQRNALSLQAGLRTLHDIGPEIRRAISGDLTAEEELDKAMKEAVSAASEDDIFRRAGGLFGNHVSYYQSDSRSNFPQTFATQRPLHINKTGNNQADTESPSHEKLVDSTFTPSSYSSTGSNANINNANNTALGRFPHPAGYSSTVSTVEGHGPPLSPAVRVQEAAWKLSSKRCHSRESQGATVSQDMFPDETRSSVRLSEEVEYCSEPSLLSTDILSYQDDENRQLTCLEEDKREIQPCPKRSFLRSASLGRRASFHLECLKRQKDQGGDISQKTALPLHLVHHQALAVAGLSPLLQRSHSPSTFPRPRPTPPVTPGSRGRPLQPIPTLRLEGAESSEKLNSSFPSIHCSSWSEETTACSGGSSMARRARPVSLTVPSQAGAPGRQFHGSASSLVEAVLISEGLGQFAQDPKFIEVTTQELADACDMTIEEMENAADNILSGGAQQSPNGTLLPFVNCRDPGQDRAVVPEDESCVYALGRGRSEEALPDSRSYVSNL
T4 sequence (P21396 whole entry): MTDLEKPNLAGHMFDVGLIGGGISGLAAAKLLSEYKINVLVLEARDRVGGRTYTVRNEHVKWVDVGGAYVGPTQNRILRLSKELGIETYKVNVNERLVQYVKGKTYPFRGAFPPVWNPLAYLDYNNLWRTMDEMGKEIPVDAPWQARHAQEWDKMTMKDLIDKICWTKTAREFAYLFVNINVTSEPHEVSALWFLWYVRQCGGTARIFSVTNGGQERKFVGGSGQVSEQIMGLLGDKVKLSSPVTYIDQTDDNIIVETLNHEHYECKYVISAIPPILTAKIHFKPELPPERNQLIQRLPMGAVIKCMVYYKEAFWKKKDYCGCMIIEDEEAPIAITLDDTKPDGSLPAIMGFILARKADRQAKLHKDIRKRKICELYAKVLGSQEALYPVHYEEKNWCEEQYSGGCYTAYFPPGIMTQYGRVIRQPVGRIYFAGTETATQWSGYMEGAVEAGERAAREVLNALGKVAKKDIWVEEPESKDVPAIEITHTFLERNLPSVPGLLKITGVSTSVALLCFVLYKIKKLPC
T8 sequence (P25021 whole entry): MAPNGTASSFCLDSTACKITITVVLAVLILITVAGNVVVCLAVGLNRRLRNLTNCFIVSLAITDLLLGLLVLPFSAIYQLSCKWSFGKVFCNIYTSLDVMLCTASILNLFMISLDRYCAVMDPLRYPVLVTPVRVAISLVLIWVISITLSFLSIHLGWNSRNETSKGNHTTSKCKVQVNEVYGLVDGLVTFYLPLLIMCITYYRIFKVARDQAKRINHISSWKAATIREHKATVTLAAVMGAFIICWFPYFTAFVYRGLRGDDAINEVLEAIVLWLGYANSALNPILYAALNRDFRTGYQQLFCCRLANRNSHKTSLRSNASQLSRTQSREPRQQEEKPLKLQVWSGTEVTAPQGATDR

## CC1(C)C(/C=C/C2=C(Oc3ccc(CCC(=O)NCCCC[C@@H]4NC(=O)[C@@H](Cc5ccc(O)cc5)NC(=O)[C@H](CC(=O)O)NC(=O)CNC(=O)[C@H](CCCNC(=N)N)NC4=O)cc3)C(=C/C=C3/N(CCC[N+](C)(C)C)c4ccc(S(=O)(=O)O)cc4C3(C)C)/CCC2)=[N+](CCC[N+](C)(C)C)c2ccc(S(=O)(=O)O)cc21 [cRGD-ZW800-1]
[1]
  % Inhibition of Control Specific Binding: -6%
[1]; 10 µM
  % of Control Specific Binding 1st: 106.4%
  % of Control Specific Binding 2nd: 104.8%
[2]; 10% of the HED of the NOAEL (FDA recommendation)
  safe starting dose for first in-human studies: 0.08 mg/kg
[2]; NOAEL of 5.0 mg/kg in rats adjusted for body surface area
  human equivalent dose (HED) of the NOAEL: 0.80 mg/kg
[2]; rats, intravenous injection of 5.0 mg/kg, unpublished data
  toxicology findings: neither clinical symptoms, nor treatment-related histopathological, biochemical, and hematological abnormalities
[2]; rats, intravenous injection, unpublished data
  no observable adverse event level (NOAEL): at least 5.0 mg/kg
[3]; [17]
  inhibition at 10 µM: -5%
[3]; [18]
  remaining activity at 10 µM: 105%
[4]; 10 nmol cRGD-ZW800-1 alone, n = 3, healthy colon as background, mean ± SD
  TBR at 4 h, control: 3.2 ± 0.5
[4]; 10 nmol cRGD-ZW800-1 co-injected with 2.0 μmol unlabeled cRGD (200-fold), n = 4, mean ± SD
  TBR at 4 h, with unlabeled cRGD: 1.8 ± 0.4
[5]; [19]
  inhibition at 10 µM: 9%
[5]; [20]
  remaining activity at 10 µM: 90.6%
[6]; [19]
  inhibition at 10 µM: -20%
[6]; [20]
  remaining activity at 10 µM: 120%
[7]; 10 μM cRGD-ZW800-1, format An, performed twice, read-out: % Inhibition of Control Specific Binding
  inhibition at 10 µM: 15%
[7]; [20]
  remaining activity at 10 µM: 85%
[8]; 10 μM cRGD-ZW800-1, format H, performed twice, read-out: % Inhibition of Control Specific Binding
  inhibition at 10 µM: -12%
[8]; [20]
  remaining activity at 10 µM: 112%
[9]; [17]
  inhibition at 10 µM: 10%
[9]; [18]
  remaining activity at 10 µM: 90.4%
[10]; Ca2+ channel (L, dihydropyridine site), 10 μM cRGD-ZW800-1, format An, performed twice, read-out: % Inhibition of Control Specific Binding
  inhibition at 10 µM: 15%
[10]; Ca2+ channel, 10 μM, mean of 2, read-out: % of Control Specific Binding Mean
  remaining activity at 10 µM: 84.6%
[11]; 10 μM cRGD-ZW800-1, format An, performed twice
  % Inhibition of Control Specific Binding: 2%
[11]; 10 μM, mean of 2
  % of Control Specific Binding Mean: 98.0%
[12]; 10 μM cRGD-ZW800-1, format H, Ag, performed twice, read-out: % Inhibition of Control Specific Binding
  inhibition at 10 µM: -11%
[12]; [20]
  remaining activity at 10 µM: 111%
[13]; [17]
  inhibition at 10 µM: -1%
[13]; [18]
  remaining activity at 10 µM: 101%
[14]; [17]
  inhibition at 10 µM: -4%
[14]; [18]
  remaining activity at 10 µM: 104%
[15]
  concentration inside tumors: approximately 0.2 μM
[16]; [17]
  inhibition at 10 µM: 5%
[16]; [18]
  remaining activity at 10 µM: 95.5%
